In patent US20230330254A1 (Regeneron Pharmaceuticals, Inc., priority 2022, published 2023):
Blank lines part the entries; values can stand above or below the compound they belong to. Where a SMILES comes first, the peptide text is derived from it. [ ]: non-standard residue; d: D form. The star is where a group is joined. Bip(2'-Et,4'-O(CH2)4NH2) = CCc1cc(OCCCCN)ccc1-c1ccc(C[C@H](N)C(=O)O)cc1; Nva(5-(3,5-Me2Ph)) = Cc1cc(C)cc(CCC[C@H](N)C(=O)O)c1; Ala(1H-tetrazol-5-yl) = N[C@@H](Cc1nnn[nH]1)C(=O)O; αMePhe(2-F) = C[C@](N)(Cc1ccccc1F)C(=O)O; X9 = O=C([C@@H]1CCN(CCc2cnc[nH]2)C1)*; X8 = O=C([C@H]1CCN(CCc2cnc[nH]2)C1)*

Legend:
human GLP1R [1] = biological target: T1, human GLP1R (Homo sapiens, UniProt P43220); assay: Human GLP1R cAMP accumulation assay; format: cell-based; parameters: HEK293 cells over-expressing full length human GLP-1R were utilized; expressed in transfected cells; host or cells: HEK293 (HEK293/hGLP1R)
T1 sequence (P43220 24-463): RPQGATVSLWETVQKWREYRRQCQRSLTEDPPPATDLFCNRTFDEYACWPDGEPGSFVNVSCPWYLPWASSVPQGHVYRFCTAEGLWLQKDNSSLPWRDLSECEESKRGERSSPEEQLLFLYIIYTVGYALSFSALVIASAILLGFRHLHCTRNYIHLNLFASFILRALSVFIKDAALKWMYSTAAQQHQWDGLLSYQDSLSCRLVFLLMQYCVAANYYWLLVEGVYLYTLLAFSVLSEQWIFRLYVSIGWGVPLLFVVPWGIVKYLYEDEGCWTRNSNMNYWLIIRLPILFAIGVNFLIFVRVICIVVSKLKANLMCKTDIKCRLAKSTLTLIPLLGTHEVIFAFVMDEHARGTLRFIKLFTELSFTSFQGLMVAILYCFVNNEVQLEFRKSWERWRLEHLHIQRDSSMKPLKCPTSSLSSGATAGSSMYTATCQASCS
Procedure: 8.1 Human GLP1R cAMP Accumulation Assay (Cyclic AMP Determination)
The functional activity of the test compounds for agonizing GLP1R were evaluated using a cell-based assay. For the assay, HEK293 cells over-expressing full length human GLP-1R were utilized and the downstream cAMP accumulation was assessed as a measure of human GLP-1R stimulation. […] Diluted compounds were transferred to OptiPlates (100 nL/well) using an Echo liquid handler. HEK293/hGLP1R cells were thawed in 37° C. water-bath, washed 2 times with HBSS and re-suspended in assay buffer (HBSS+5 mM HEPES+500 μM IBMX+0.1% BSA). […] After centrifugation, the assay plate was incubated at 23° C. for 30 min. The reaction was terminated by adding 10 μL of lysis buffer containing D2-cAMP and a cAMP-antibody from the cyclic AMP immunoassay kit (Cisbio, Cat #62AM4PEJ). […] The levels of cAMP per well were calculated using a standard curve generated by GraphPad Prism. Percent activity was calculated according to the formula (% Activity=100%*(cAMP level-LC)/(HC-LC)). EC50 values were fitted from a four-parameter logistic equation over a 10-point response curve (GraphPad Prism).

HEK293/CRE-Luc cells = assay: Luciferase reporter assay, HEK293/CRE-Luc cells without GLP1R (Example 17); format: cell-based, human; conditions: HEK293/CRE-Luc cells without hGLP1R, payloads and linker-payloads; for EC50: read-out: EC50
From the text: (§1) To test the activity of GLP1R agonist payloads, GLP1R agonist linker-payloads (LPs), and anti-GLP1R antibody tethered drug conjugates (ATDCs) of the invention, a cell-based cAMP responsive luciferase reporter assay was developed. To generate the assay cell line, the firefly luciferase gene was placed under the control of a cAMP response element (CRE) located upstream of a minimal promoter and transfected into HEK293 cells and referred to herein as HEK293/CRE-Luc cells.
(§2) Three-fold serial dilutions of free payloads or LPs were prepared in 100% DMSO, transferred to fresh assay media, and added to the cells at a final constant DMSO concentration of 0.2%. The last well in the plate served as a blank control containing only the assay media and 0.2% DMSO (untreated well) and was plotted as a continuation of the 3-fold serial dilution. Four to six hours later, luciferase activity was determined after the addition of One-Glo™ reagent (Promega, Cat #E6130) to each well. Relative light units (RLUs) were measured on an Envision luminometer (PerkinElmer) and EC50 values were determined using a four-parameter logistic equation over a 12-point dose response curve (GraphPad Prism). The signal to noise (S/N) was determined by taking the ratio of the highest RLU on the dose response curve to the RLU in the untreated wells. Data was generated across several experiments (A-E) with M2361 serving as a reference standard in each experiment to calculate the payload relative potency ((M2361 EC50/payload EC50)*100)) and relative S/N ((payload SN/M2361 SN)*100)).

human GLP1R [2] = biological target: T1, human GLP1R; assay: Luciferase reporter assay, HEK293/CRE-Luc/hGLP1R (Example 17); format: cell-based; parameters: engineered to express full-length human GLP1R, cynomolgus GLP1R; expressed in transfected cells; host or cells: HEK293/CRE-Luc; conditions: HEK293/CRE-Luc/hGLP1R; for S/N: highest RLU / RLU of untreated wells; for EC50: payloads and linker-payloads, experiments A-E, M2361 repeated in each, read-out: EC50; for Relative Potency (% M2361 EC50) / Relative Signal:Noise (% M2361): relative to M2361 of the same experiment
From the text: as §1, §2

[3] = HEK293/hGLP1R cells, Table 4, read-out: cAMP EC50

SMILES: CCc1cc(OCCCCNC(=O)CNC(=O)CNC(=O)CNC(=O)CNC(=O)[C@H](CO)NC(=O)CCC(=O)N2Cc3ccccc3C#Cc3ccccc32)ccc1-c1ccc(C[C@H](NC(=O)[C@H](CC(=O)O)NC(=O)[C@H](CO)NC(=O)[C@@H](NC(=O)[C@](C)(Cc2ccccc2F)NC(=O)[C@@H](NC(=O)CNC(=O)[C@H](Cc2nn[nH]n2)NC(=O)C(C)(C)C(=O)NCCc2cnc[nH]2)[C@@H](C)O)[C@@H](C)O)C(=O)N[C@@H](CCCc2cc(C)cc(C)c2)C(=O)Nc2ccccc2)cc1 [LP16, DIBAC-suc-SG4-P23]
EC50 (human GLP1R [1]; [3]): 1040 pM

SMILES: CCc1cc(OCCCCNC(=O)CCOCCOCCOCCOCCOCCOCCOCCOCCOCCOCCOCCOCCOCCOCCOCCOCCOCCOCCOCCOCCOCCOCCOCCOCCNC(=O)CCC(=O)N2Cc3ccccc3-c3nnn(CC4OC5OC6C(CO)OC(OC7C(CO)OC(OC8C(CO)OC(OC9C(CO)OC(OC%10C(CO)OC(OC4C(O)C5O)C(O)C%10O)C(O)C9O)C(O)C8O)C(O)C7O)C(O)C6O)c3-c3ccccc32)ccc1-c1ccc(C[C@H](NC(=O)[C@H](CC(=O)O)NC(=O)[C@H](CO)NC(=O)[C@@H](NC(=O)[C@](C)(Cc2ccccc2F)NC(=O)[C@@H](NC(=O)CNC(=O)[C@H](Cc2nn[nH]n2)NC(=O)C(C)(C)C(=O)NCCc2cnc[nH]2)[C@@H](C)O)[C@@H](C)O)C(=O)N[C@@H](CCCc2cc(C)cc(C)c2)C(N)=O)cc1 (some centres unmarked) [LP22, cyclo-dex-trin-triazole-DIBAC-suc-PEG24-P9]
EC50 (human GLP1R [1]): 2710 pM

SMILES: CCc1cc(OCCCCNC(=O)[C@H](CO)NC(=O)CNC(=O)CNC(=O)CNC(=O)CNC(=O)C(CO)NC(=O)CNC(=O)CNC(=O)CNC(=O)CN)ccc1-c1ccc(C[C@H](NC(=O)[C@H](CC(=O)O)NC(=O)[C@H](CO)NC(=O)[C@@H](NC(=O)[C@](C)(Cc2ccccc2F)NC(=O)[C@@H](NC(=O)CNC(=O)[C@H](Cc2nn[nH]n2)NC(=O)C(C)(C)C(=O)NCCc2cnc[nH]2)[C@@H](C)O)[C@@H](C)O)C(=O)N[C@@H](CCCc2cc(C)cc(C)c2)C(N)=O)cc1 (some centres unmarked) [M2945]
S/N (HEK293/CRE-Luc cells): 1.4 | EC50 (HEK293/CRE-Luc cells): > 20000 pM | S/N (human GLP1R [2]): 71.8 | EC50 (human GLP1R [2]): 25.5 pM | Relative Potency (% M2361 EC50) (human GLP1R [2]): 31.4% | Relative Signal:Noise (% M2361) (human GLP1R [2]): 99.9%

SMILES: CCc1cc(OCCCCN)ccc1-c1ccc(C[C@H](NC(=O)[C@H](CC(=O)O)NC(=O)[C@H](CO)NC(=O)[C@@H](NC(=O)[C@](C)(Cc2ccccc2F)NC(=O)[C@@H](NC(=O)CNC(=O)[C@H](Cc2nn[nH]n2)NC(=O)[C@]2(C)CCN(CCc3cnc[nH]3)C2=O)[C@@H](C)O)[C@@H](C)O)C(=O)N[C@@H](CCCc2cc(C)cc(C)c2)C(N)=O)cc1 [P14-S]
EC50 (human GLP1R [1]; [3]): 727 pM

SMILES: CCc1cc(OCCCCN)ccc1-c1ccc(C[C@H](NC(=O)[C@H](CC(=O)O)NC(=O)[C@H](CO)NC(=O)[C@@H](NC(=O)[C@](C)(Cc2ccccc2F)NC(=O)[C@@H](NC(=O)CNC(=O)[C@H](Cc2nn[nH]n2)NC(=O)[C@H]2CCN(CCc3cnc[nH]3)C2)[C@@H](C)O)[C@@H](C)O)C(=O)N[C@@H](CCCc2cc(C)cc(C)c2)C(N)=O)cc1 [P16-S] (X8-[Ala(1H-tetrazol-5-yl)]GT[αMePhe(2-F)]TSD[Bip(2'-Et,4'-O(CH2)4NH2)][Nva(5-(3,5-Me2Ph))]-NH2)
EC50 (human GLP1R [1]; [3]): 544 pM

SMILES: CCc1cc(OCCCCN)ccc1-c1ccc(C[C@H](NC(=O)[C@H](CC(=O)O)NC(=O)[C@H](CO)NC(=O)[C@@H](NC(=O)[C@](C)(Cc2ccccc2F)NC(=O)[C@@H](NC(=O)CNC(=O)[C@H](Cc2nn[nH]n2)NC(=O)[C@@H]2CCN(CCc3cnc[nH]3)C2)[C@@H](C)O)[C@@H](C)O)C(=O)N[C@@H](CCCc2cc(C)cc(C)c2)C(N)=O)cc1 [P17-R] (X9-[Ala(1H-tetrazol-5-yl)]GT[αMePhe(2-F)]TSD[Bip(2'-Et,4'-O(CH2)4NH2)][Nva(5-(3,5-Me2Ph))]-NH2)
EC50 (human GLP1R [1]; [3]): 11200 pM

SMILES: CCc1cc(OCCCCN)ccc1-c1ccc(C[C@H](NC(=O)[C@H](CC(=O)O)NC(=O)[C@H](CO)NC(=O)[C@@H](NC(=O)[C@](C)(Cc2ccccc2F)NC(=O)[C@@H](NC(=O)CNC(=O)[C@@H](N)CCC(N)=O)[C@@H](C)O)[C@@H](C)O)C(=O)N[C@@H](CCCc2cc(C)cc(C)c2)C(N)=O)cc1 [P20, (3S)-4-[[(1S)-1-[[4-[4-(4-aminobutoxy)-2-ethyl-phenyl]phenyl]methyl]-2-[[(1S)-1-carbamoyl-4-(3,5-dimethylphenyl)butyl]amino]-2-oxo-ethyl]amino]-3-[[(2S)-2-[[(2S,3R)-2-[[(2S)-2-[[(2S,3R)-2-[[2-[[(2S)-2,5-diamino-5-oxopentanoyl]amino]acetyl]amino]-3-hydroxy-butanoyl]amino]-3-(2-fluorophenyl)-2-methyl-propanoyl]amino]-3-hydroxybutanoyl]amino]-3-hydroxy-propanoyl]amino]-4-oxo-butanoic acid]
EC50 (human GLP1R [1]; [3]): 370 pM

Further lines, with some results ahead:

EC50 (human GLP1R [1]; [3]): 412 pM
SMILES: CCc1cc(OCCCCn2cc(COCCOCCOCCOCCNC(=O)CCC(=O)N3Cc4ccccc4C#Cc4ccccc43)nn2)ccc1-c1ccc(C[C@H](NC(=O)[C@H](CC(=O)O)NC(=O)[C@H](CO)NC(=O)[C@@H](NC(=O)[C@](C)(Cc2ccccc2F)NC(=O)[C@@H](NC(=O)CNC(=O)[C@H](Cc2nn[nH]n2)NC(=O)C(C)(C)C(=O)NCCc2cnc[nH]2)[C@@H](C)O)[C@@H](C)O)C(=O)N[C@@H](CCCc2cc(C)cc(C)c2)C(N)=O)cc1 [LP8, DIBAC-suc-PEG4-triazole-P8]

EC50 (human GLP1R [1]; [3]): 558 pM
SMILES: CCc1cc(OCCCCNC(=O)[C@@H](CO)NC(=O)CNC(=O)CNC(=O)CNC(=O)CNC(=O)COC2C#CCCCCC2)ccc1-c1ccc(C[C@H](NC(=O)[C@H](CC(=O)O)NC(=O)[C@H](CO)NC(=O)[C@@H](NC(=O)C(C)(Cc2ccccc2F)NC(=O)[C@@H](NC(=O)CNC(=O)[C@H](Cc2nn[nH]n2)NC(=O)C(C)(C)C(=O)NCCc2cnc[nH]2)[C@@H](C)O)[C@@H](C)O)C(=O)N[C@@H](CCCc2cc(C)cc(C)c2)C(N)=O)cc1 (stereo partly drawn) [LP19, COT-G4-(R)Ser-P9]

EC50 (human GLP1R [1]; [3]): 314 pM
SMILES: CCc1cc(OCCCCNC(=O)CNC(=O)CNC(=O)CNC(=O)CNC(=O)[C@H](CO[C@@H]2OC(CO)[C@@H](O)C(O)C2O)NC(=O)CCC(=O)N2Cc3ccccc3C#Cc3ccccc32)ccc1-c1ccc(C[C@H](NC(=O)[C@H](CC(=O)O)NC(=O)[C@H](CO)NC(=O)[C@@H](NC(=O)[C@](C)(Cc2ccccc2F)NC(=O)[C@@H](NC(=O)CNC(=O)[C@H](Cc2nn[nH]n2)NC(=O)C(C)(C)C(=O)NCCc2cnc[nH]2)[C@@H](C)O)[C@@H](C)O)C(=O)N[C@@H](CCCc2cc(C)cc(C)c2)C(N)=O)cc1 (some centres unmarked) [LP20, DIBAC-suc-(glucose) SG4-P9]

S/N (human GLP1R [2]): 67.8 | Relative Potency (% M2361 EC50) (human GLP1R [2]): 40.3% | Relative Signal:Noise (% M2361) (human GLP1R [2]): 103.1%
SMILES: CCc1cc(OCCCCN)ccc1-c1ccc(C[C@H](NC(=O)[C@H](CC(=O)O)NC(=O)[C@H](CO)NC(=O)[C@@H](NC(=O)[C@](C)(Cc2ccccc2F)NC(=O)[C@@H](NC(=O)CNC(=O)[C@H](Cc2nn[nH]n2)NC(=O)[C@@]2(C)CCN(CCc3cnc[nH]3)C2=O)[C@@H](C)O)[C@@H](C)O)C(=O)N[C@@H](CCCc2cc(C)cc(C)c2)C(N)=O)cc1 [P15]
S/N (HEK293/CRE-Luc cells): 1.1 | EC50 (HEK293/CRE-Luc cells): > 200000 pM

S/N (human GLP1R [2]): 55.1 | EC50 (human GLP1R [2]): 217 pM | Relative Potency (% M2361 EC50) (human GLP1R [2]): 2.5% | Relative Signal:Noise (% M2361) (human GLP1R [2]): 83.8%
SMILES: CCc1cc(OCCCCN)ccc1-c1ccc(C[C@H](NC(=O)[C@H](CC(=O)O)NC(=O)[C@H](CO)NC(=O)[C@@H](NC(=O)[C@](C)(Cc2ccccc2F)NC(=O)[C@@H](NC(=O)CNC(=O)[C@H](Cc2nn[nH]n2)NC(=O)[C@H]2CCN(CCc3cnc[nH]3)C2)[C@@H](C)O)[C@@H](C)O)C(=O)N[C@@H](CCCc2cc(C)cc(C)c2)C(N)=O)cc1 [P16] (X8-[Ala(1H-tetrazol-5-yl)]GT[αMePhe(2-F)]TSD[Bip(2'-Et,4'-O(CH2)4NH2)][Nva(5-(3,5-Me2Ph))]-NH2)
S/N (HEK293/CRE-Luc cells): 1.1 | EC50 (HEK293/CRE-Luc cells): > 200000 pM
